In US20140235533A1, “DIHYDROFURAN DERIVATIVES AS INSECTICIDAL COMPOUNDS” (SYNGENTA PARTICIPATIONS AG, priority 2011, published 2014):

Tests used:
Type in all cases: in vivo
Heliothis virescens = Heliothis virescens (tobacco budworm) egg test on artificial diet; settings: 96 h, 200 ppm (concentration in well 18 ppm), eggs 0-24 h old on artificial diet, egg mortality, larval mortality, growth regulation after 4 days
Procedure: Heliothis virescens (Tobacco Budworm):
Eggs (0-24 h old) were placed in 24-well microtiter plate on artificial diet and treated with test solutions at an application rate of 200 ppm (concentration in well 18 ppm) by pipetting. After an incubation period of 4 days, samples were checked for egg mortality, larval mortality, and growth regulation. The following compound gave at least 80% control of Heliothis virescens: A1, A2, A03, A05, A06, A07, A08, A09, A10, A11, A12, A13, A14, A15, A16, A17, A18, A19, A20, A21, A22, A25, A26, A27, A31, A32, A34, A37, A39, A40, A42, A44, A45, A46, A47, A48, A49, A50, A51, A52, A53, B1**.

Plutella xylostella = Plutella xylostella (diamond back moth) artificial diet MTP test; settings: 144 h, 200 ppm (concentration in well 18 ppm), L2 larvae, larval mortality and growth regulation after 6 days
Procedure: (§1) Plutella xylostella (Diamond Back Moth): 24-well microtiter plate (MTP) with artificial diet was treated with test solutions at an application rate of 200 ppm (concentration in well 18 ppm) by pipetting. After drying, the MTPs were infested with L2 larvae (7-12 per well). After an incubation period of 6 days, samples were checked for larval mortality and growth regulation.

Diabrotica balteata = Diabrotica balteata (corn root worm) artificial diet MTP test; settings: 120 h, 200 ppm (concentration in well 18 ppm), L2 larvae, larval mortality and growth regulation after 5 days
Procedure: as §1, with “Diabrotica balteata (Corn Root Worm): A” for “Plutella xylostella (Diamond Back Moth):”, “(6-10” for “(7-12”, “5” for “6”

Spodoptera littoralis = Spodoptera littoralis (Egyptian cotton leafworm) cotton leaf disc spray test; settings: foliar, 72 h, 200 ppm spray on cotton leaf discs, 5 L1 larvae, mortality, feeding behavior, growth regulation 3 days after treatment
Description: Spodoptera littoralis (Egyptian Cotton Leafworm) Cotton leaf discs were placed on agar in a 24-well microtiter plate and sprayed with test solutions at an application rate of 200 ppm. After drying, the leaf discs were infested with 5 L1 larvae. The samples were checked for mortality, feeding behavior, and growth regulation 3 days after treatment (DAT).

Compound | pest or weed control at 200 ppm (Heliothis virescens) [%] | pest or weed control at 200 ppm (Plutella xylostella) [%] | pest or weed control at 200 ppm (Diabrotica balteata) [%] | pest or weed control at 200 ppm (Spodoptera littoralis) [%]
O=C(CCc1ccccc1)NCc1ccc(C2=COC(c3cc(Cl)cc(Cl)c3)(C(F)(F)F)C2)cc1Cl (centres unmarked) [Compound A09, N-[[2-chloro-4-[2-(3,5-dichlorophenyl)-2-(trifluoromethyl)-3H-furan-4-yl]phenyl]methyl]-3-phenyl-propanamide] | ≥ 80 | ≥ 80 | ≥ 80 | 
O=C(/C=C/c1ccco1)NCc1ccc(C2=COC(c3cc(Cl)cc(Cl)c3)(C(F)(F)F)C2)cc1Cl (centres unmarked) [Compound A10, (E)-N-[[2-chloro-4-[2-(3,5-dichlorophenyl)-2-(trifluoromethyl)-3H-furan-4-yl]phenyl]methyl]-3-(2-furyl)prop-2-enamide] | ≥ 80 | ≥ 80 |  | 
O=C(CSc1nc2ccccc2[nH]1)NCc1ccc(C2=COC(c3cc(Cl)cc(Cl)c3)(C(F)(F)F)C2)cc1Cl (centres unmarked) [Compound A12, 2-(1H-benzimidazol-2-ylsulfanyl)-N-[[2-chloro-4-[2-(3,5-dichlorophenyl)-2-(trifluoromethyl)-3H-furan-4-yl]phenyl]methyl]acetamide] | ≥ 80 | ≥ 80 |  | 
O=C(CCC(=O)c1ccccc1)NCc1ccc(C2=COC(c3cc(Cl)cc(Cl)c3)(C(F)(F)F)C2)cc1Cl (centres unmarked) [Compound A13, N-[[2-chloro-4-[2-(3,5-dichlorophenyl)-2-(trifluoromethyl)-3H-furan-4-yl]phenyl]methyl]-4-oxo-4-phenyl-butanamide] | ≥ 80 | ≥ 80 |  | ≥ 80
O=C(/C=C/c1ccccc1F)NCc1ccc(C2=COC(c3cc(Cl)cc(Cl)c3)(C(F)(F)F)C2)cc1Cl (centres unmarked) [Compound A16, (E)-N-[[2-chloro-4-[2-(3,5-dichlorophenyl)-2-(trifluoromethyl)-3H-furan-4-yl]phenyl]methyl]-3-(2-fluorophenyl)prop-2-enamide] | ≥ 80 |  |  | 
O=C(/C=C/c1ccccc1Cl)NCc1ccc(C2=COC(c3cc(Cl)cc(Cl)c3)(C(F)(F)F)C2)cc1Cl (centres unmarked) [Compound A17, (E)-N-[[2-chloro-4-[2-(3,5-dichlorophenyl)-2-(trifluoromethyl)-3H-furan-4-yl]phenyl]methyl]-3-(2-chlorophenyl)prop-2-enamide] | ≥ 80 |  |  | 
O=C(NCc1ccc(C2=COC(c3cc(Cl)cc(Cl)c3)(C(F)(F)F)C2)cc1Cl)c1cccc(F)c1F (centres unmarked) [Compound A20, N-[[2-chloro-4-[2-(3,5-dichlorophenyl)-2-(trifluoromethyl)-3H-furan-4-yl]phenyl]methyl]-2,3-difluoro-benzamide] | ≥ 80 | ≥ 80 | ≥ 80 | ≥ 80
O=C(NCc1ccc(C2=COC(c3cc(Cl)cc(Cl)c3)(C(F)(F)F)C2)cc1Cl)c1ccc2nsnc2c1 (centres unmarked) [Compound A21, N-[[2-chloro-4-[2-(3,5-dichlorophenyl)-2-(trifluoromethyl)-3H-furan-4-yl]phenyl]methyl]-2,1,3-benzothiadiazole-5-carboxamide] | ≥ 80 |  |  | 
O=C(CCN1C(=O)c2ccccc2C1=O)NCc1ccc(C2=COC(c3cc(Cl)cc(Cl)c3)(C(F)(F)F)C2)cc1Cl (centres unmarked) [Compound A22, N-[[2-chloro-4-[2-(3,5-dichlorophenyl)-2-(trifluoromethyl)-3H-furan-4-yl]phenyl]methyl]-3-(1,3-dioxoisoindolin-2-yl)propanamide] | ≥ 80 | ≥ 80 | ≥ 80 | ≥ 80
O=C(COc1ccc(Cl)cc1)NCc1ccc(C2=COC(c3cc(Cl)cc(Cl)c3)(C(F)(F)F)C2)cc1Cl (centres unmarked) [Compound A25, N-[[2-chloro-4-[2-(3,5-dichlorophenyl)-2-(trifluoromethyl)-3H-furan-4-yl]phenyl]methyl]-2-(4-chlorophenoxy)acetamide] | ≥ 80 |  |  | 
COc1ccc(C(=O)NCc2ccc(C3=COC(c4cc(Cl)cc(Cl)c4)(C(F)(F)F)C3)cc2Cl)cc1 (centres unmarked) [Compound A26, N-[[2-chloro-4-[2-(3,5-dichlorophenyl)-2-(trifluoromethyl)-3H-furan-4-yl]phenyl]methyl]-4-methoxy-benzamide] | ≥ 80 | ≥ 80 | ≥ 80 | ≥ 80
CSc1ccc(C(=O)NCc2ccc(C3=COC(c4cc(Cl)cc(Cl)c4)(C(F)(F)F)C3)cc2Cl)cc1 (centres unmarked) [Compound A27, N-[[2-chloro-4-[2-(3,5-dichlorophenyl)-2-(trifluoromethyl)-3H-furan-4-yl]phenyl]methyl]-4-methylsulfanyl-benzamide] | ≥ 80 |  | ≥ 80 | 
O=C(NCc1ccc(C2=COC(c3cc(Cl)cc(Cl)c3)(C(F)(F)F)C2)cc1Cl)c1cc(Cl)ccc1Cl (centres unmarked) [Compound A28, 2,5-dichloro-N-[[2-chloro-4-[2-(3,5-dichlorophenyl)-2-(trifluoromethyl)-3H-furan-4-yl]phenyl]methyl]benzamide] |  | ≥ 80 |  | 
O=C(NCc1ccc(C2=COC(c3cc(Cl)cc(Cl)c3)(C(F)(F)F)C2)cc1Cl)c1c[nH]cn1 (centres unmarked) [Compound A31, N-[[2-chloro-4-[2-(3,5-dichlorophenyl)-2-(trifluoromethyl)-3H-furan-4-yl]phenyl]methyl]-1H-imidazole-4-carboxamide] | ≥ 80 | ≥ 80 |  | ≥ 80
O=C(NCc1ccc(C2=COC(c3cc(Cl)cc(Cl)c3)(C(F)(F)F)C2)cc1Cl)c1ccc2c(c1)OCCCO2 (centres unmarked) [Compound A32, N-[[2-chloro-4-[2-(3,5-dichlorophenyl)-2-(trifluoromethyl)-3H-furan-4-yl]phenyl]methyl]-3,4-dihydro-2H-1,5-benzodioxepine-7-carboxamide] | ≥ 80 |  |  | 
O=C(NCc1ccc(C2=COC(c3cc(Cl)cc(Cl)c3)(C(F)(F)F)C2)cc1Cl)c1cnnc2ccccc12 (centres unmarked) [Compound A34, N-[[2-chloro-4-[2-(3,5-dichlorophenyl)-2-(trifluoromethyl)-3H-furan-4-yl]phenyl]methyl]cinnoline-4-carboxamide] | ≥ 80 | ≥ 80 |  | 
O=C(NCc1ccc(C2=COC(c3cc(Cl)cc(Cl)c3)(C(F)(F)F)C2)cc1Cl)c1ccc2sccc2c1 (centres unmarked) [Compound A37, N-[[2-chloro-4-[2-(3,5-dichlorophenyl)-2-(trifluoromethyl)-3H-furan-4-yl]phenyl]methyl]benzothiophene-5-carboxamide] | ≥ 80 |  |  | 
O=C(NCc1ccc(C2=COC(c3cc(Cl)cc(Cl)c3)(C(F)(F)F)C2)cc1Cl)c1ncoc1-c1ccccc1 (centres unmarked) [Compound A38, N-[[2-chloro-4-[2-(3,5-dichlorophenyl)-2-(trifluoromethyl)-3H-furan-4-yl]phenyl]methyl]-5-phenyl-oxazole-4-carboxamide] |  |  |  | ≥ 80
O=C(NCc1ccc(C2=COC(c3cc(Cl)cc(Cl)c3)(C(F)(F)F)C2)cc1Cl)c1ccc(-c2ccccn2)s1 (centres unmarked) [Compound A42, N-[[2-chloro-4-[2-(3,5-dichlorophenyl)-2-(trifluoromethyl)-3H-furan-4-yl]phenyl]methyl]-5-(2-pyridyl)thiophene-2-carboxamide] | ≥ 80 |  |  | 
Cc1onc(-c2ccccc2)c1C(=O)NCc1ccc(C2=COC(c3cc(Cl)cc(Cl)c3)(C(F)(F)F)C2)cc1Cl (centres unmarked) [Compound A45, N-[[2-chloro-4-[2-(3,5-dichlorophenyl)-2-(trifluoromethyl)-3H-furan-4-yl]phenyl]methyl]-5-methyl-3-phenyl-isoxazole-4-carboxamide] | ≥ 80 |  |  | 
CSC1(C(=O)NCc2ccc(C3=COC(c4cc(Cl)cc(Cl)c4)(C(F)(F)F)C3)cc2Cl)CC1 (centres unmarked) [Compound A49, N-[[2-chloro-4-[2-(3,5-dichlorophenyl)-2-(trifluoromethyl)-3H-furan-4-yl]phenyl]methyl]-1-methylsulfanyl-cyclopropanecarboxamide] | ≥ 80 | ≥ 80 |  | ≥ 80
O=C(NCc1ccc(C2=COC(c3cc(Cl)cc(Cl)c3)(C(F)(F)F)C2)cc1Cl)c1ccc(O)c(F)c1 (centres unmarked) [Compound A52, N-[[2-chloro-4-[2-(3,5-dichlorophenyl)-2-(trifluoromethyl)-3H-furan-4-yl]phenyl]methyl]-3-fluoro-4-hydroxy-benzamide] | ≥ 80 | ≥ 80 |  | 
